According to ChEMBL document CHEMBL3865792, “Antioxidant and antitumor activity of trolox, trolox succinate, and α-tocopheryl succinate conjugates with nitroxides” (Eur J Med Chem, 2016):

Tested on: not listed separately
Test: Genotoxicity in Escherichia coli PQ37 expressing lacZ gene assessed as ratio of inducible beta-galactosidase activity to alkaline phosphatase activity at 30 mM after 2 hrs by SOS-chromotest relative to control
Type: toxicity
Settings: Escherichia coli PQ37 cells expressing lacZ gene, read-out: FC

SMILES	fold induction at 2 h, 30000 µM
Cc1c(C)c2c(c(C)c1OC(=O)CCC(=O)NCC1CC(C)(C)N([O])C1(C)C)CC[C@@](C)(CCC[C@H](C)CCC[C@H](C)CCCC(C)C)O2 (stereo partly specified)	1
Cc1c(C)c2c(c(C)c1OC(=O)CCC(=O)O)CC[C@@](C)(CCC[C@H](C)CCC[C@H](C)CCCC(C)C)O2 [(+)-ALPHA-TOCOPHERYL SUCCINATE]	1.1

Tested on: Salmonella typhimurium
Test: Genotoxicity in Salmonella typhimurium TA102 harboring […] mutant assessed as frequency of reversion from histidine auxotrophy to prototrophy at 30 mM after 48 hrs by Ames test (reference value: 209 +/- 10 No _unit)
Type: toxicity, organism-based
Settings: salmonella enterica subsp. enterica serovar typhimurium, 30000 µM

SMILES	Activity
Cc1c(C)c2c(c(C)c1OC(=O)CCC(=O)NCC1CC(C)(C)N([O])C1(C)C)CC[C@@](C)(CCC[C@H](C)CCC[C@H](C)CCCC(C)C)O2 (stereo partly specified)	215
Cc1c(C)c2c(c(C)c1OC(=O)CCC(=O)O)CC[C@@](C)(CCC[C@H](C)CCC[C@H](C)CCCC(C)C)O2 [(+)-ALPHA-TOCOPHERYL SUCCINATE]	216

Tested on: Salmonella enterica subsp. enterica serovar Typhimurium
Test: Antioxidant activity in Salmonella typhimurium TA102 harboring […] mutant assessed as inhibition of t-BuO2H-dependant mutant formation at 0.3 uM preincubated with compound followed by t-BuO2H addition after 48 hrs by Ames test
Type: functional
Settings: not given

SMILES	inhibition [%]
Cc1c(C)c2c(c(C)c1OC(=O)CCC(=O)NCC1CC(C)(C)N([O])C1(C)C)CC[C@@](C)(CCC[C@H](C)CCC[C@H](C)CCCC(C)C)O2 (stereo partly specified)	1
Cc1c(C)c2c(c(C)c1OC(=O)CCC(=O)O)CC[C@@](C)(CCC[C@H](C)CCC[C@H](C)CCCC(C)C)O2 [(+)-ALPHA-TOCOPHERYL SUCCINATE]	56

Tested on: Salmonella enterica subsp. enterica serovar Typhimurium
Test: Antioxidant activity in Salmonella typhimurium TA102 harboring […] mutant assessed as inhibition of t-BuO2H-dependant mutant formation at 3 uM preincubated with compound followed by t-BuO2H addition after 48 hrs by Ames test
Type: functional
Settings: not given

SMILES	inhibition [%]
Cc1c(C)c2c(c(C)c1OC(=O)CCC(=O)NCC1CC(C)(C)N([O])C1(C)C)CC[C@@](C)(CCC[C@H](C)CCC[C@H](C)CCCC(C)C)O2 (stereo partly specified)	4
Cc1c(C)c2c(c(C)c1OC(=O)CCC(=O)O)CC[C@@](C)(CCC[C@H](C)CCC[C@H](C)CCCC(C)C)O2 [(+)-ALPHA-TOCOPHERYL SUCCINATE]	63.2

Tested on: Salmonella enterica subsp. enterica serovar Typhimurium
Test: Antioxidant activity in Salmonella typhimurium TA102 harboring […] mutant assessed as inhibition of t-BuO2H-dependant mutant formation at 30 uM preincubated with compound followed by t-BuO2H addition after 48 hrs by Ames test
Type: functional
Settings: not given

SMILES	inhibition [%]
Cc1c(C)c2c(c(C)c1OC(=O)CCC(=O)NCC1CC(C)(C)N([O])C1(C)C)CC[C@@](C)(CCC[C@H](C)CCC[C@H](C)CCCC(C)C)O2 (stereo partly specified)	24
Cc1c(C)c2c(c(C)c1OC(=O)CCC(=O)O)CC[C@@](C)(CCC[C@H](C)CCC[C@H](C)CCCC(C)C)O2 [(+)-ALPHA-TOCOPHERYL SUCCINATE]	63.6

Tested on: not listed separately
Test: Cytotoxicity against human MCF7 cells assessed as reduction in cell viability after 72 hrs by MTT assay
Type: functional, cell-based
Settings: MCF7, 72 h

SMILES	IC50 [µM]
Cc1c(C)c2c(c(C)c1OC(=O)CCC(=O)NCC1CC(C)(C)N([O])C1(C)C)CC[C@@](C)(CCC[C@H](C)CCC[C@H](C)CCCC(C)C)O2 (stereo partly specified)	260
Cc1c(C)c2c(c(C)c1OC(=O)CCC(=O)O)CC[C@@](C)(CCC[C@H](C)CCC[C@H](C)CCCC(C)C)O2 [(+)-ALPHA-TOCOPHERYL SUCCINATE]	57

Tested on: not listed separately
Test: Cytotoxicity against human RPMI8226 cells assessed as reduction in cell viability after 72 hrs by MTT assay
Type: functional, cell-based
Settings: RPMI-8226, 72 h

SMILES	IC50 [µM]
Cc1c(C)c2c(c(C)c1OC(=O)CCC(=O)NCC1CC(C)(C)N([O])C1(C)C)CC[C@@](C)(CCC[C@H](C)CCC[C@H](C)CCCC(C)C)O2 (stereo partly specified)	217
Cc1c(C)c2c(c(C)c1OC(=O)CCC(=O)O)CC[C@@](C)(CCC[C@H](C)CCC[C@H](C)CCCC(C)C)O2 [(+)-ALPHA-TOCOPHERYL SUCCINATE]	63

Tested on: not listed separately
Test: Cytotoxicity against human HepG2 cells assessed as reduction in cell viability after 72 hrs by MTT assay
Type: functional, cell-based
Settings: HepG2, 72 h

SMILES	IC50 [µM]
Cc1c(C)c2c(c(C)c1OC(=O)CCC(=O)NCC1CC(C)(C)N([O])C1(C)C)CC[C@@](C)(CCC[C@H](C)CCC[C@H](C)CCCC(C)C)O2 (stereo partly specified)	> 300
Cc1c(C)c2c(c(C)c1OC(=O)CCC(=O)O)CC[C@@](C)(CCC[C@H](C)CCC[C@H](C)CCCC(C)C)O2 [(+)-ALPHA-TOCOPHERYL SUCCINATE]	245

Tested on: not listed separately
Test: Cytotoxicity against human CEM13 cells assessed as reduction in cell viability after 72 hrs by MTT assay
Type: functional, cell-based
Settings: CEM13, 72 h

SMILES	IC50 [µM]
Cc1c(C)c2c(c(C)c1OC(=O)CCC(=O)NCC1CC(C)(C)N([O])C1(C)C)CC[C@@](C)(CCC[C@H](C)CCC[C@H](C)CCCC(C)C)O2 (stereo partly specified)	105
Cc1c(C)c2c(c(C)c1OC(=O)CCC(=O)O)CC[C@@](C)(CCC[C@H](C)CCC[C@H](C)CCCC(C)C)O2 [(+)-ALPHA-TOCOPHERYL SUCCINATE]	> 300

Tested on: not listed separately
Test: Cytotoxicity against human U937 cells assessed as reduction in cell viability after 72 hrs by MTT assay
Type: functional, cell-based
Settings: U-937, 72 h

SMILES	IC50 [µM]
Cc1c(C)c2c(c(C)c1OC(=O)CCC(=O)NCC1CC(C)(C)N([O])C1(C)C)CC[C@@](C)(CCC[C@H](C)CCC[C@H](C)CCCC(C)C)O2 (stereo partly specified)	137
Cc1c(C)c2c(c(C)c1OC(=O)CCC(=O)O)CC[C@@](C)(CCC[C@H](C)CCC[C@H](C)CCCC(C)C)O2 [(+)-ALPHA-TOCOPHERYL SUCCINATE]	113

Tested on: not listed separately
Test: Cytotoxicity against human MT4 cells assessed as reduction in cell viability after 72 hrs by MTT assay
Type: functional, cell-based
Settings: MT4, 72 h

SMILES	IC50 [µM]
Cc1c(C)c2c(c(C)c1OC(=O)CCC(=O)NCC1CC(C)(C)N([O])C1(C)C)CC[C@@](C)(CCC[C@H](C)CCC[C@H](C)CCCC(C)C)O2 (stereo partly specified)	92
Cc1c(C)c2c(c(C)c1OC(=O)CCC(=O)O)CC[C@@](C)(CCC[C@H](C)CCC[C@H](C)CCCC(C)C)O2 [(+)-ALPHA-TOCOPHERYL SUCCINATE]	66

Tested on: not listed separately
Test: Cytotoxicity against mouse LMTK cells assessed as reduction in cell viability after 72 hrs by MTT assay
Type: toxicity
Settings: not given

SMILES	IC50 at 72 h [µM]
Cc1c(C)c2c(c(C)c1OC(=O)CCC(=O)NCC1CC(C)(C)N([O])C1(C)C)CC[C@@](C)(CCC[C@H](C)CCC[C@H](C)CCCC(C)C)O2 (stereo partly specified)	> 300
Cc1c(C)c2c(c(C)c1OC(=O)CCC(=O)O)CC[C@@](C)(CCC[C@H](C)CCC[C@H](C)CCCC(C)C)O2 [(+)-ALPHA-TOCOPHERYL SUCCINATE]	73

Tested on: not listed separately
Test: Cytotoxicity against hamster AG17-1 cells assessed as reduction in cell viability after 72 hrs by MTT assay
Type: toxicity, cell-based, Cricetulus griseus
Settings: Chinese hamster

SMILES	IC50 at 72 h [µM]
Cc1c(C)c2c(c(C)c1OC(=O)CCC(=O)NCC1CC(C)(C)N([O])C1(C)C)CC[C@@](C)(CCC[C@H](C)CCC[C@H](C)CCCC(C)C)O2 (stereo partly specified)	> 300
Cc1c(C)c2c(c(C)c1OC(=O)CCC(=O)O)CC[C@@](C)(CCC[C@H](C)CCC[C@H](C)CCCC(C)C)O2 [(+)-ALPHA-TOCOPHERYL SUCCINATE]	50

Tested on: not listed separately
Test: Cytotoxicity against human HepG2 cells assessed as reduction in cell viability at 300 uM after 72 hrs by MTT assay
Type: functional
Settings: HepG2, 72 h

SMILES	inhibition at 300 µM [%]
Cc1c(C)c2c(c(C)c1OC(=O)CCC(=O)NCC1CC(C)(C)N([O])C1(C)C)CC[C@@](C)(CCC[C@H](C)CCC[C@H](C)CCCC(C)C)O2 (stereo partly specified)	10

Tested on: not listed separately
Test: Cytotoxicity against human CEM13 cells assessed as reduction in cell viability at 300 uM after 72 hrs by MTT assay
Type: functional
Settings: CEM13, 72 h

SMILES	inhibition at 300 µM [%]
Cc1c(C)c2c(c(C)c1OC(=O)CCC(=O)O)CC[C@@](C)(CCC[C@H](C)CCC[C@H](C)CCCC(C)C)O2 [(+)-ALPHA-TOCOPHERYL SUCCINATE]	40

Tested on: not listed separately
Test: Cytotoxicity against mouse LMTK cells assessed as reduction in cell viability at 300 uM after 72 hrs by MTT assay
Type: toxicity
Settings: read-out: INH

SMILES	cytotoxicity at 72 h, 300 µM [%]
Cc1c(C)c2c(c(C)c1OC(=O)CCC(=O)NCC1CC(C)(C)N([O])C1(C)C)CC[C@@](C)(CCC[C@H](C)CCC[C@H](C)CCCC(C)C)O2 (stereo partly specified)	7

Tested on: not listed separately
Test: Cytotoxicity against hamster AG17-1 cells assessed as reduction in cell viability at 300 uM after 72 hrs by MTT assay
Type: toxicity, cell-based, Cricetulus griseus
Settings: Chinese hamster, read-out: INH

SMILES	cytotoxicity at 72 h, 300 µM [%]
Cc1c(C)c2c(c(C)c1OC(=O)CCC(=O)NCC1CC(C)(C)N([O])C1(C)C)CC[C@@](C)(CCC[C@H](C)CCC[C@H](C)CCCC(C)C)O2 (stereo partly specified)	32

Tested on: not listed separately
Test: Ratio of IC50 for human MCF7 cells to concentration causing antioxidant activity in Salmonella typhimurium TA102 harboring […] mutant
Type: functional
Settings: not given

SMILES	Ratio
Cc1c(C)c2c(c(C)c1OC(=O)CCC(=O)NCC1CC(C)(C)N([O])C1(C)C)CC[C@@](C)(CCC[C@H](C)CCC[C@H](C)CCCC(C)C)O2 (stereo partly specified)	100 - 1000

Tested on: not listed separately
Test: Ratio of IC50 for human RPMI8226 cells to concentration causing antioxidant activity in Salmonella typhimurium TA102 harboring […] mutant
Type: functional, RPMI-8226
Settings: not given

SMILES	Ratio
Cc1c(C)c2c(c(C)c1OC(=O)CCC(=O)NCC1CC(C)(C)N([O])C1(C)C)CC[C@@](C)(CCC[C@H](C)CCC[C@H](C)CCCC(C)C)O2 (stereo partly specified)	100 - 1000

Tested on: not listed separately
Test: Ratio of IC50 for human HEPG2 cells to concentration causing antioxidant activity in Salmonella typhimurium TA102 harboring […] mutant
Type: functional
Settings: not given

SMILES	Ratio
Cc1c(C)c2c(c(C)c1OC(=O)CCC(=O)NCC1CC(C)(C)N([O])C1(C)C)CC[C@@](C)(CCC[C@H](C)CCC[C@H](C)CCCC(C)C)O2 (stereo partly specified)	100 - 1000

Tested on: not listed separately
Test: Ratio of IC50 for human CEM13 cells to concentration causing antioxidant activity in Salmonella typhimurium TA102 harboring […] mutant
Type: functional
Settings: not given

SMILES	Ratio
Cc1c(C)c2c(c(C)c1OC(=O)CCC(=O)NCC1CC(C)(C)N([O])C1(C)C)CC[C@@](C)(CCC[C@H](C)CCC[C@H](C)CCCC(C)C)O2 (stereo partly specified)	100 - 1000

Tested on: not listed separately
Test: Ratio of IC50 for human MT4 cells to concentration causing antioxidant activity in Salmonella typhimurium TA102 harboring […] mutant
Type: functional
Settings: not given

SMILES	Ratio
Cc1c(C)c2c(c(C)c1OC(=O)CCC(=O)NCC1CC(C)(C)N([O])C1(C)C)CC[C@@](C)(CCC[C@H](C)CCC[C@H](C)CCCC(C)C)O2 (stereo partly specified)	100 - 1000

Tested on: not listed separately
Test: Ratio of IC50 for human U937 cells to concentration causing antioxidant activity in Salmonella typhimurium TA102 harboring […] mutant
Type: functional, U-937
Settings: not given

SMILES	Ratio
Cc1c(C)c2c(c(C)c1OC(=O)CCC(=O)NCC1CC(C)(C)N([O])C1(C)C)CC[C@@](C)(CCC[C@H](C)CCC[C@H](C)CCCC(C)C)O2 (stereo partly specified)	100 - 1000
